From patent US9393288B2, “Methods of treating diseases associated with PPARγ” (The University of Vermont and State Agricultural College, priority 2012, dated 2016)

Test system: PPARγ target genes
Assay: PPARγ target gene expression (real-time qPCR) in adipose tissue, pial arteries and PA, NP Sprague Dawley rats
Type: in vivo, rat
Description: Animals and Treatment Groups: All procedures were approved by the Institutional Animal Care and Use Committee and conducted in accordance with the National Institutes of Health Guide for the Care and Use of Laboratory Animals. Female virgin NP Sprague Dawley rats (250-300 g, 14-16 weeks, Charles River, Canada) were used for all experiments and housed in the University of Vermont Animal Care Facility. Animals were randomly selected and grouped as untreated (N=4), treated with recombinant human relaxin-2 (relaxin, 4 μg/hr; N=14), relaxin plus a specific PPARγ inhibitor GW9662 (10 mg/kg daily in food; N=8), or vehicle (20 mM sodium acetate; N=14) for 10 days through osmotic minipumps (Alzet 2ML2, Durect Corp., Cupertino, Calif., USA). GW9662 treatment was started 1 day before and for the duration of relaxin treatment to ensure PPARγ was inhibited. Animals were anesthetized with 3% isoflurane and minipumps implanted subcutaneously in the back of the neck. All animals received post-surgical analgesic (buprenorphine, 50 μg/kg, s.c.). Relaxin infusion was continuous for 10 days until animals were euthanized for vessel experiments and tissue collection. The minipumps used were capable of delivering relaxin for 14 days and thus tissue collection was within this duration.
Determination of RXFP1 and PPARγ Target Gene Expression: MCA and PA from 4 untreated rats were collected to determine expression level of RXFP1, the primary relaxin receptor, using real-time qPCR methods. We also collected adipose tissue, pial arteries, and PA from vehicle, relaxin and relaxin+GW9662 groups (n=6 for each group) for determination of PPARγ target gene expression. All collected samples were stored in RNase inhibitor (1 unit/μl, RiboLock, Fermentas, Glen Burnie, Md., USA) at −80° C. for comparing expression of fatty acid translocase (FAT)/CD36 and liver X receptors-α (LXRα) for adipose tissue, and plasminogen activator inhibitor-1 (PAI-1) for vasculature. Standard techniques for real-time qPCR were performed by the Vermont Cancer Center DNA analysis facility at the University of Vermont, as described previously Cipolla et al. (2009) Stroke 40, 1451-1457. Briefly, RNA was extracted from tissues and concentration and integrity was determined by a NanoDrop ND-1000 Spectrophotometer (Wilmington, Del.) and an Agilent 2100 Bioanalyzer (Santa Clara, Calif., USA), respectively. Samples with low RNA quality were excluded. cDNA was then made by a SuperScript III Kit (Invitrogen, Carlsbad, Calif., USA). Real-time qPCR was set up as follows: 10 μL Universal PCR Master Mix (Applied Biosystems, Foster City, Calif., USA), 1 μL Assay on Demand (Applied Biosystems), 8 μL water, and 1 μL cDNA. β2-microglobulin (B2M, housekeeping control) and target genes were assessed using Assays on Demand from Applied Biosystems. […] Primers were designed across an exon-exon junction to avoid detecting genomic DNA. Thus, no DNase treatment of samples was necessary. All samples were run in duplicates using a 7900HT Sequence Detection System (Applied Biosystems). […]
Data Calculations and Statistical Analysis: Percent tone was calculated as percent decrease in ID from the passive diameter at each intravascular pressure: [1−(IDactive/IDpassive)]×100%. Outer diameter (OD) was calculated from measured ID and WT: ID+2WT. Cross-sectional area (CSA) of the wall was calculated as: [(OD/2)2−(ID/2)2]×π. Data from qPCR study were analyzed using the −2^ΔΔCT method, as described previously Livak et al. (2001) Methods 25, 402-408. […]

## relaxin
Relaxin vs vehicle, NP rats
  Gene expression of CD36 in adipose tissue: decreased
  PAI-1 expression in pial arteries: did not significantly change
Relaxin vs vehicle, NP rats, low sample numbers
  PAI-1 expression in PA: did not significantly change
Similar trend as CD36 (decrease with relaxin, normalized by GW9662)
  Gene expression of LXR-α in adipose tissue: not statistically significant
